Experimental findings from publication PMC13308190, “Endothelial progenitor cell susceptibility to DNA damaging and DDR-modulating compounds determines endothelial differentiation accuracy” (Stem Cell Research & Therapy, 2026) are described below.

For series [1], the system named is EC d6. Kind of series: Nuclear γH2AX / 53BP1 foci (DSB). The conditions noted are these: EC d6 24 h, equitoxic concentrations.
In series [2] the test system is EC d6. Kind of series: EdU incorporation (S-phase activity). As to conditions: EC d6 24 h; Dox up to 0.1 µM. It is filed as cell-based, mouse.
Series [3] deals with EC d4. The series is described as follows: Mitochondrial membrane potential (TMRM-MitoTracker Green). The format is cell-based, mouse. As to conditions: EC d4 treated 48 h, analysed in EC d6; Dox 0.05 µM.
Series [4] deals with primary murine cardiac endothelial cells. The series is described as follows: RT-qPCR mRNA expression. It is filed as cell-based, mouse. In general terms: In qPCR the cycle at which signal appears reflects the starting amount.
Series [5] has as its system EC d4. The series is described as follows: Alkaline comet assay. As to conditions: EC d4 48 h.
In series [6] the test system is EC d4. The series is described as follows: Doxorubicin import/export (flow cytometry). The format is cell-based, mouse. The conditions noted are these: EC d4, 2 h pulse then 6 h post-incubation. The procedure:
Import and export of Dox were examined via flow cytometry. […] Trypsinized cells were washed with PBS and pelleted by centrifugation (200 x g, 5 min, 4 °C). After additional washing, cells were resuspended in PBS.
(In general: In flow cytometry, cells or beads pass a laser one at a time.)

The test system of series [7] is EC d6. The series is described as follows: Alkaline comet assay. As to conditions: EC d6 24 h.
In another series the test system is mESC. Kind of series: Alkaline comet assay. The conditions noted are these: mESC 24 h.
Series [8] deals with EC d4. The series is described as follows: DNA fiber spreading assay. As to conditions: EC d4 48 h; HU: 5 mM, 1 h. It is filed as cell-based, mouse. The procedure: To analyze DNA replication fork progression, the DNA fiber spreading assay was performed. Briefly, cells were pulse-labeled with 20 µM CldU (20 min, 37 °C, 5% C0_2) and immediately afterwards with 200 µM IdU (20 min, 37 °C, 5% C02). Cell suspension was applied onto glass slides followed by cell lysis (0.5% SDS, 200 mM Tris–HCl, 50 mM EDTA). After incubation (6 min, RT), slides were tilted upwards to stretch the fibers, dried 6 min lying horizontally flat and fixed (5 min, RT) in methanol: acetic acid (3:1). After drying (7 min, lying horizontally flat) slides were stored overnight in 70% ethanol (4 °C). The next day samples were incubated in 100% methanol (5 min, RT) followed by denaturation in 2.5 M HCl (1 h, RT) and blocking (5% BSA in PBS, 1 h, 37 °C). DNA Fibers were stained with rat anti-BrdU (1:40) for CldU detection and mouse anti-BrdU (1:70) for IdU detection (in 0.5% BSA/PBS; 1 h, RT). After washing (0.05% Tween 20 in PBS and PBS) incubation with secondary antibodies anti-rat 488 (1:400) and anti-mouse 555 (1:250) was performed (1 h, RT, 0.5% BSA in PBS). Following washing with 0.05% Tween 20 in PBS and PBS, the slides were mounted with Fluoroshield (Sigma [Steinheim, Germany]). DNA fibers were analyzed microscopically (Olympus BX43 fluorescence microscope [40 objective]). The length of CldU (green) and IdU (red) tract was measured using ImageJ software, analyzing 200 fibers per experimental condition.

With `COc1cccc2c1C(=O)c1c(O)c3c(c(O)c1C2=O)C[C@@](O)(C(=O)CO)C[C@@H]3O[C@H]1C[C@H](N)[C@H](O)[C@H](C)O1` [Dox, doxorubicin], the “DSB formation (γH2AX / 53BP1 foci)” value with EC d6 [1] was “significant increase”. Moreover, in the series on EC d6 [2], the “number of EdU-positive cells” value is “remained unaffected”. The mitochondrial membrane potential result with EC d4 [3] is listed as “strongest drop in mitochondrial membrane potential”. In series [4] (1 µM, 24 h, Fig 7E), the “Ccn1a mRNA” value was 0.52 Fold of untreated control, the “Ccnd2 mRNA” value is recorded as 2.92 Fold of untreated control, the “Cdkn1a mRNA” value is given as 12.45 Fold of untreated control and the “Cdkn2a mRNA” value is listed as 2.56 Fold of untreated control. Besides, in series [4] (1 µM, 24 h, Fig 7E), the “Cxc1 mRNA” value is recorded as 10.16 Fold of untreated control, the “E2f1 mRNA” value is 0.54 Fold of untreated control, the “Glb1 mRNA” value is 2.10 Fold of untreated control and the “Il6 mRNA” value is listed as 16.90 Fold of untreated control. In [4] (1 µM, 24 h, Fig 7E), the “Il8 mRNA” value was 2.54 Fold of untreated control, the “Mmp3 mRNA” value is 1.42 Fold of untreated control, the “Mybl2 mRNA” value is recorded as 0.053 Fold of untreated control and the “Tp53 mRNA” value is given as 1.66 Fold of untreated control. Moreover, the “upregulation of Il6, Cxc1 and Cdkn1a mRNA” value in series [4] (Dox 24 h) is recorded as “about 10 fold”. In the series on EC d4 [5], the “steady-state level of SSB (alkaline comet assay)” value (from here on “steady-state level of SSB”) is reported as “no or only a minor increase”. The “Dox efflux capacity as compared to the other differentiation stages” value with EC d4 [6] is reported as “enhanced export activity”. The “steady-state level of SSB” value in the series with EC d6 [7] is “no or only a minor increase”. In addition, the “steady-state level of SSB” value in the series on mESC is listed as “significant increase”.
Turning to `Nc1ccccc1NC(=O)c1ccc(CNC(=O)OCc2cccnc2)cc1` [EST, entinostat], in the series with EC d4 [8], the replication fork progression result is “opposite effects”.
